Where a SMILES comes first, the peptide text is derived from it. Where no end group is shown, it is not given here.
Assays:
SNCG = SNCG (Homo sapiens, UniProt O76070); test: Far-UV circular dichroism of SNCG titrated with ANK peptide, calculated secondary structure; set-up: The SNCG coding region was amplified from the human cDNA clone; GST (N, cleaved yes); made in house; host or cells: Escherichia coli BL21 (DE3)
Description: FIGS. 1B and 1C provide far-UV circular dichroism (CD) spectra of SNCG (10 μM) with titration of ANK peptide […] (SEQ ID NO:1) at concentrations of 2 μM, 12 μM and 24 μM (FIG. 1B) and 25 μM, 50 μM and 100 μM (FIG. 1C). […] Spectra patterns correspond to random coil structures.
Titration of SNCG with the ANK peptide also gave rise to far-UV spectra characteristic of an unfolded protein (FIG. 1B) and produced no significant changes in calculated secondary structure.
The SNCG-ANK interaction was monitored using far-UV CD recorded on a rapid-scanning monochromator fitted with a CD module (RSM 1000, Olis Inc., Bogart Ga.). Samples containing 0.145 mg/ml SNCG were dialyzed into 5 mM sodium phosphate buffer, pH 7.0 for data acquisition. Spectra were averaged from 12 scans recorded at 25° C. The baseline was corrected by subtracting the spectra measured under identical conditions for the remaining buffer after dialysis. Peptide was reconstituted into flow-through buffer after dialysis and used for titration. Molar ellipticity [θ] was calculated according to the formula [θ]=[θ]×100/(nlc), where n represents the number of amino acids in the protein, l represents the path length of the cuvette in centimeters and c represents the concentration in millimolar. Percentage secondary structure was calculated using the web-based program CDNN (Bohm et al. Protein Eng. 1992 5:191-195).

MCF7-SNCG cells = test: Flow cytometry (PI cell cycle and anti-phospho-H3) after paclitaxel; type: cell-based; conditions: 0.5 μM paclitaxel
Description: FIG. 7A through D show expression of EGFP-ANK disrupting the SNCG-mediated inhibition of mitotic checkpoint function as measured by microscopy and flow cytometry. The bar graphs show the expression of EGFP-ANK disrupting the SNCG-mediated inhibition of mitotic checkpoint function, using (FIG. 7A) DAPI and (FIG. 7B) anti-phospho-H^3 staining. For graphs of FIGS. 7A and 7B, the cells treated with 0.5 μM paclitaxel for 18 hours or untreated control cells were fixed with 4% paraformaldehyde for 20 minutes at room temperature. In both cases, the cells were then stained with 1 μg/ml of DAPI or 2 μg/ml anti-phospho-H3 primary and Texas Red goat anti-rabbit secondary antibodies (Invitrogen). Green fluorescent cells were identified for positive transfected cells. For each sample, 200-300 cells randomly chosen from 5 different views under a Nikon fluorescent microscope were scored for interphase, mitotic, or apoptotic based upon nuclei morphology. The data shown were derived from three separate transfections (p<0.01). […]
Two days after transfection, cells were exposed to paclitaxel for 18 hours and numbers of mitotic arrested and apoptotic cells were counted after DAPI staining. […] These cells were also probed with rabbit polyclonal anti-phospho-H^3 and the mitotic index was calculated according to the proportion of the number of H^3 stained EGFP positive cells to total EGFP positive cells (FIG. 7B). […]

Chain of SNCG (O76070 whole entry): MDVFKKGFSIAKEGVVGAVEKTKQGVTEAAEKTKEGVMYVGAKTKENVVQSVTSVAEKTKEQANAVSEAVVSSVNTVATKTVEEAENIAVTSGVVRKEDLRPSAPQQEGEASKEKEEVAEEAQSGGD

Molecule	Structure (%) Antiparallel (SNCG; SNCG + 2.0 μM ANK Peptide)	Structure (%) Beta-Turn (SNCG; SNCG + 2.0 μM ANK Peptide)	Structure (%) Helix (SNCG; SNCG + 2.0 μM ANK Peptide)	Structure (%) Parallel (SNCG; SNCG + 2.0 μM ANK Peptide)	Structure (%) Random Coil (SNCG; SNCG + 2.0 μM ANK Peptide)	Structure (%) Antiparallel (SNCG; SNCG + 12 μM ANK Peptide)	Structure (%) Beta-Turn (SNCG; SNCG + 12 μM ANK Peptide)	Structure (%) Helix (SNCG; SNCG + 12 μM ANK Peptide)	Structure (%) Parallel (SNCG; SNCG + 12 μM ANK Peptide)	Structure (%) Random Coil (SNCG; SNCG + 12 μM ANK Peptide)	Structure (%) Antiparallel (SNCG; SNCG + 24 μM ANK Peptide)	Structure (%) Beta-Turn (SNCG; SNCG + 24 μM ANK Peptide)	Structure (%) Helix (SNCG; SNCG + 24 μM ANK Peptide)	Structure (%) Parallel (SNCG; SNCG + 24 μM ANK Peptide)	Structure (%) Random Coil (SNCG; SNCG + 24 μM ANK Peptide)	increase in positive phosphorylated histones (anti-phospho-H3 staining) (MCF7-SNCG cells; versus MCF7-SNCG cells not containing EGFP-ANK)	increase in apoptotic/dead cell population (MCF7-SNCG cells; cell cycle analysis, versus control vector pEGFP)
CC[C@H](C)[C@H](NC(=O)[C@H](CS)NC(=O)CNC(=O)[C@H](CC(C)C)NC(=O)[C@H](Cc1c[nH]cn1)NC(=O)CNC(=O)[C@H](Cc1c[nH]cn1)NC(=O)[C@H](CCC(N)=O)NC(=O)[C@H](CO)NC(=O)[C@H](C)NC(=O)[C@@H](NC(=O)[C@H](Cc1c[nH]cn1)NC(=O)[C@H](CC(C)C)NC(=O)[C@H](C)NC(=O)[C@H](CO)NC(=O)[C@H](CC(N)=O)NC(=O)CNC(=O)[C@H](CCCCN)NC(C)=O)C(C)C)C(=O)N[C@@H](CCC(N)=O)C(=O)N[C@H](C(=O)N[C@@H](CC(C)C)C(=O)N[C@H](C(=O)N[C@@H](CCCNC(=N)N)C(=O)N[C@@H](Cc1ccc(O)cc1)C(=O)NCC(=O)N[C@@H](C)C(=O)N[C@@H](CC(N)=O)C(=O)N[C@H](C(=O)N[C@H](C(=O)N[C@@H](CCSC)C(=O)N[C@@H](CCC(N)=O)C(=O)N[C@@H](CC(N)=O)C(=O)N[C@@H](Cc1c[nH]cn1)C(=O)NCC(N)=O)[C@@H](C)O)C(C)C)C(C)C)[C@@H](C)O [ANK peptide] (Ac-KGNSALHVASQHGHLGCIQTLVRYGANVTMQNHG-NH2)	9.00%	17.6%	29.2%	10.3%	36.0%	8.80%	17.4%	30.0%	10.0%	35.4%	8.70%	17.3%	30.4%	9.90%	35.0%		
EGFP-ANK: ANK peptide expressed as a fusion protein with its amino-terminal linked to EGFP protein, approximately 37 kDa ({EGFP}-KGNSALHVASQHGHLGCIQTLVRYGANVTMQNHG)																3,5 fold	almost a four-fold increase

From patent US7897568B2, “Compositions for treatment of cancer” (priority 2006, dated 2011)
